The target of experiment [1] is T1, GST tagged Bcl w delta C29 protein (Homo sapiens, UniProt Q92843).
T1 sequence (Q92843 1-164 limits assumed): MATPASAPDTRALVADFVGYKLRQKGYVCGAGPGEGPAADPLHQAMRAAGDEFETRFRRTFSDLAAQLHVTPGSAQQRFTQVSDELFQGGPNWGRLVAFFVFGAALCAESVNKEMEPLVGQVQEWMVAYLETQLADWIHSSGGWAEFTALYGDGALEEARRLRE
Kind of experiment: Alphascreen competition with Bim26mer, GST detection system. Type of experiment: binding. The conditions noted are these: for change in binding affinity, in words / decrease in binding affinity: Bcl-w ΔC29, compared to the linear 16-mer.

Experiment [2] concerns the target GST tagged Bcl w delta C29 protein (UniProt Q92843). Put plainly: AlphaScreen competition with biotinylated Bim BH3-26 peptide. Background: Bead proximity is the source of the signal in Alpha formats.
The mark [3] stands for this setting: substituted 16-mers, Example 9, read-out: IC50 nM Bcl-w ΔC29.
Where [4] appears, read: Puma and Bmf peptides, Example 10, read-out: IC50 nM Bcl-w ΔC29.

Read-outs that look alike come from different tables or passages of the source. *1 amine or outer side, *2 acyl side, *3 side chain or, on linkers, in order; H or OH if unused. Where a SMILES comes first, the peptide text is derived from it. Bridges are numbered along the chain shown (N, C = ends). [ ]: non-standard residue; d: D form. NH(CH2)5NH = C(CCN[*:1])CCN[*:2]; Cit = NC(=O)NCCC[C@H](N)C(=O)O

For the molecule `CC[C@H](C)[C@H](NC(C)=O)C(=O)N[C@@H](Cc1c[nH]c2ccccc12)C(=O)N[C@H](C(=O)N[C@@H](C)C(=O)N[C@@H](CCC(N)=O)C(=O)N[C@H]1CCC(=O)NCCCCCNC(=O)CC[C@@H](C(=O)N[C@@H](Cc2ccccc2)C(=O)N[C@@H](CC(N)=O)C(=O)N[C@@H](C)C(N)=O)NC(=O)[C@H](CC(=O)O)NC(=O)CNC(=O)[C@H]([C@@H](C)CC)NC(=O)[C@H](CCCNC(=N)N)NC(=O)[C@H](CCCNC(=N)N)NC(=O)[C@H](CC(C)C)NC1=O)[C@@H](C)CC` [E] (Ac-IWIAQELRRIGDEFNA-NH2; linker 6-13 via NH(CH2)5NH), the IC50 in experiment [1] (values repeated in text, read-out: binding of the constrained peptide to Bcl-w) worked out at 0.5 nM. In experiment [1], `CC[C@H](C)[C@H](NC(=O)[C@H](C)NC(=O)[C@H](CCC(N)=O)NC(C)=O)C(=O)N[C@@H](C)C(=O)N[C@@H](CCC(N)=O)C(=O)N[C@H]1CCC(=O)NCCCCCNC(=O)CC[C@@H](C(=O)N[C@@H](Cc2ccccc2)C(=O)N[C@@H](CC(N)=O)C(=O)N[C@@H](C)C(N)=O)NC(=O)[C@H](CC(=O)O)NC(=O)CNC(=O)[C@H]([C@@H](C)CC)NC(=O)[C@H](CCCNC(=N)N)NC(=O)[C@H](CCCNC(=N)N)NC(=O)[C@H](CC(C)C)NC1=O` [Peptide G, Ac-QAIAQZLRRIGDZFNA-NH2] (Ac-QAIAQELRRIGDEFNA-NH2; linker 6-13 via NH(CH2)5NH) registered an IC50 of 2.4 nM. For the molecule `CC[C@H](C)[C@H](NC(C)=O)C(=O)N[C@@H](Cc1c[nH]c2ccccc12)C(=O)N[C@H](C(=O)N[C@@H](C)C(=O)N[C@@H](CCC(N)=O)C(=O)N[C@@H](CCC(=O)O)C(=O)N[C@@H](CC(C)C)C(=O)N[C@@H](CCCNC(N)=O)C(=O)N[C@@H](CCCNC(N)=O)C(=O)N[C@H](C(=O)NCC(=O)N[C@@H](CC(=O)O)C(=O)N[C@@H](CCC(=O)O)C(=O)N[C@@H](Cc1ccccc1)C(=O)N[C@@H](CC(N)=O)C(=O)N[C@@H](C)C(N)=O)[C@@H](C)CC)[C@@H](C)CC` [Peptide T] (Ac-IWIAQEL[Cit][Cit]IGDEFNA-NH2), the IC50 in experiment [1] (setting [3]) was 20 nM.

In the case of Ac-AWIAQELRRIGDEFNA-NH2 [O], in experiment [1], the “change in binding affinity, in words” value is recorded as “drop in binding”. Also, the IC50 in experiment [1] (setting [3]) came out at 22 nM. The matching figures for Ac-IAIAQELRRIGDEFNA-NH2 [P]: “drop in binding” and 42 nM.

Consider Ac-IFIAQELRRIGDEFNA-NH2 [N], for which, in experiment [1], the “change in binding affinity, in words” value is on record as “drop in binding”. Besides, the IC50 in experiment [1] (setting [3]) was 11 nM. The matching figures for Ac-IRIAQELRRIGDEFNA-NH2 [Q]: “drop in binding” and 17 nM. As for Ac-IWAAQEARRAGDEANA-NH2 [M], the IC50 in experiment [1] (setting [3]) was found to be 64000 nM. As for Ac-IWAAQELRRIGDEFNA-NH2 [Peptide I], in experiment [1], the “change in binding affinity, in words” value is “slight decrease in binding affinity” and the “decrease in binding affinity” value was found to be 100 fold. The IC50 in experiment [1] (setting [3]) stood at 360 nM.

Ac-IWIAQEARRIGDEFNA-NH2 [Peptide J]: the “decrease in binding affinity” value in experiment [1] is reported as “about 1000 fold”. Further, the IC50 in experiment [1] (setting [3]) was 3700 nM.

For the molecule Ac-IWIAQELRRAGDEFNA-NH2 [Peptide K], in experiment [1], the “decrease in binding affinity” value stood at 3 fold. Moreover, in experiment [1] (setting [3]), the IC50 worked out at 7.3 nM. As to Ac-IWIAQELRRIGDEANA-NH2 [Peptide L], in experiment [1], the “decrease in binding affinity” value was 1,000 fold. For the same molecule, the IC50 in experiment [1] (setting [3]) was 3500 nM. For Ac-IWIAQELRRIGDEFAA-NH2 [Peptide S], the “change in binding affinity, in words” value in experiment [1] was “only slight, if any, loss of binding affinity”. Further, in experiment [1] (setting [3]), the IC50 was found to be 3.3 nM. For the molecule Ac-IWIAQELRRIGDEFAN-NH2 [Peptide R], the IC50 in experiment [1] (setting [3]) stood at 12 nM. On to “Ac-IWIAQELRRIGDEFNA-NH2 [linear 16-mer, reference compound]”, for which the IC50 in experiment [1] (competition with biotinylated BIM-BH3 peptide, 16-mers, Example 8, read-out: IC50 (nM) Bcl-w ΔC29) amounted to 2.5 nM. Ac-IWIAQELRRIGDEFNN-NH2 [Peptide U]: in experiment [1], the “decrease in binding affinity” value is recorded as “two”. Moreover, in experiment [1] (setting [3]), the IC50 amounted to 5.8 nM.

Turning to Ac-IWIAQQLRRIGDQFNA-NH2 [H], the IC50 in experiment [1] (setting [3]) was found to be 3.3 nM. On to Ac-REIGAQLRRMADDLNA-NH2 [Puma], for which, in experiment [1] (setting [4]), the IC50 was 52 nM. Still for that read-out and setting: as for Ac-VQIARKLQAIADQFHR-NH2 [Bmf], the figure is 0.25 nM.

Molecule Ac-IWIAQELRRAGDEFNA-NH2 [Peptide K (linear), Ac-…-NH2] came in with a fold decrease in affinity (against the linear 16-mer) in experiment [2] of 3 fold. The same measure, in the same setting: the value for Ac-IWIAQELRRIGDEANA-NH2 [Peptide L (linear), Ac-…-NH2] was 1000 fold. Ac-IWAAQELRRIGDEFNA-NH2 [Peptide I (linear), Ac-…-NH2]: the fold decrease in binding affinity (against the linear 16-mer) in experiment [2] worked out at 100 fold. Same read-out and setting: as for Ac-IWAAQEARRAGDEANA-NH2 [Peptide M (linear), Ac-…-NH2], the figure is 25000 fold. In experiment [2], Ac-IWIAQEARRIGDEFNA-NH2 [Peptide J (linear), Ac-…-NH2] showed a fold decrease in affinity (against the linear 16-mer) of 1000 fold. Ac-IWIAQELRRIGDEFNN-NH2 [Peptide U (linear), Ac-…-NH2] had a fold loss of binding affinity (against the linear 16-mer) in experiment [2] of 2 fold.

(Values after patent US20070032417A1, “Peptides and therapeutic uses thereof” (priority 2002, published 2007).)
